Non-standard residues stand in square brackets, D forms with d. Residues, ends and D or L forms follow the SMILES beside them. No end group written: not given here. 1Nal = N[C@@H](Cc1cccc2ccccc12)C(=O)O; Aib = CC(C)(N)C(=O)O

Here are results for 15 compounds from patent US7273848B2, “Apolipoprotein A-I agonists and their use to treat dyslipidemic disorders” (priority 1997, dated 2007).

For series [1], the target named is T1, LCAT (purified from human plasma) (Homo sapiens, UniProt P04180).
T1 construct: from tissue; host or cells: human plasma
T1 sequence (P04180 25-440): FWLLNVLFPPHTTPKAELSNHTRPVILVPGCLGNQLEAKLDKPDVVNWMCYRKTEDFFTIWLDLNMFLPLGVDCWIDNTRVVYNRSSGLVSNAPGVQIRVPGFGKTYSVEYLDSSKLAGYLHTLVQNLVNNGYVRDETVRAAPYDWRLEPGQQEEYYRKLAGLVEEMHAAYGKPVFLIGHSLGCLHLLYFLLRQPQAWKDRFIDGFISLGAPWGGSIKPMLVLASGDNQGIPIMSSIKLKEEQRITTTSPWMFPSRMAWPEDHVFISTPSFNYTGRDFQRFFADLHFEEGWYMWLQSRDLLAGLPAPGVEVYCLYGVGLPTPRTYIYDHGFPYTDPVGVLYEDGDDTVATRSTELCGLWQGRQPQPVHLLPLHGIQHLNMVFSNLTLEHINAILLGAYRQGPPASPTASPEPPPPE
Briefly: LCAT activation assay. The format is biochemical. Particulars: LCAT activation as compared with native human ApoA-I (= 100%), equivalent masses. A digest of the protocol:
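Activity was expressed as percentage conversion of radiolabelled cholesterol to cholesteryl ester, normalised to native ApoA-I as 100%. LCAT purified from human plasma was added to peptide-preincubated EPC or POPC/cholesterol (20:1) small unilamellar vesicles at pH 7.4. Specific activity is the peptide concentration reaching the conversion plateau at a fixed timepoint.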

The nature of series [2]: Circular dichroism helicity determination. To be noted: percent helicity; for He (%) free: unbound peptide 5 μM in 5 mM phosphate buffer, pH 7.4, 37° C.; for He (%) SUVs: peptide-SUV complexes (20:1 EPC:Chol., Ri=30 and Ri=50); for He (%) SUVs / He (%) TFE: 37° C.; for He (%) mics: peptide-micelle complexes, Ri=100, 37° C.; for He (%) TFE: 5 μM peptide, 90% vol TFE. It counts as physicochemical. In short, it runs like this:
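Far-UV CD (190–260 nm) at 37° C on 5 μM peptide in 5 mM phosphate pH 7.4, free, with EPC:Chol 20:1 SUVs (Ri 30 or 50), lysophosphatidylcholine micelles (Ri 100) or 90% TFE. Spectra converted to molar ellipticity per residue; helicity from 222 nm ellipticity or CONTIN fitting to reference spectra, ±5%.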

As for `CC(C)C[C@H](NC(=O)[C@H](C)NC(=O)[C@H](CCC(=O)O)NC(=O)[C@H](CC(C)C)NC(=O)C(C)(C)NC(=O)[C@H](CCC(=O)O)NC(=O)[C@H](CC(N)=O)NC(=O)[C@H](CC(C)C)NC(=O)[C@H](CCCCN)NC(=O)[C@H](CCC(=O)O)NC(=O)[C@H](CCCNC(=N)N)NC(=O)[C@H](Cc1c[nH]c2ccccc12)NC(=O)[C@H](CCC(=O)O)NC(=O)[C@H](CC(=O)O)NC(=O)[C@H](CC(C)C)NC(=O)[C@@H](NC(=O)[C@@H]1CCCN1)C(C)C)C(=O)N[C@@H](CCCCN)C(=O)N[C@@H](CCC(N)=O)C(=O)N[C@@H](CCCCN)C(=O)N[C@@H](CC(C)C)C(=O)N[C@@H](CCCCN)C(=O)O` [compound 62, PVLDEWREKLNEXLEALKQKLK] (H-PVLDEWREKLNE[Aib]LEALKQKLK-OH), in series [1], the “ACTIVITY (%) LCAT” value worked out at 16%. For the same compound, in series [2], the “He (%) free” value is 15%, the “He (%) SUVs” value worked out at 43% and the “He (%) mics” value was 85%.

As to `CC(C)C[C@H](NC(=O)[C@H](C)NC(=O)[C@H](CCC(=O)O)NC(=O)[C@H](CC(C)C)NC(=O)C(C)(C)NC(=O)[C@H](CCC(=O)O)NC(=O)[C@H](CC(N)=O)NC(=O)[C@H](CC(C)C)NC(=O)[C@H](CC(C)C)NC(=O)[C@H](CCC(=O)O)NC(=O)[C@H](CC(C)C)NC(=O)[C@H](Cc1ccccc1)NC(=O)[C@H](CC(C)C)NC(=O)[C@H](CC(=O)O)NC(=O)[C@H](CC(C)C)NC(=O)[C@@H](NC(=O)[C@@H]1CCCN1)C(C)C)C(=O)N[C@@H](CCCCN)C(=O)N[C@@H](CCC(N)=O)C(=O)N[C@@H](CCCCN)C(=O)N[C@@H](CC(C)C)C(=O)N[C@@H](CCCCN)C(=O)O` [compound 31, PVLDLFLELLNEXLEALKQKLK] (H-PVLDLFLELLNE[Aib]LEALKQKLK-OH), the “ACTIVITY (%) LCAT” value in series [1] is on record as 34%. In addition, in series [2], the “He (%) TFE” value is 90%, the “He (%) free” value amounted to 49% and the “He (%) mics” value was found to be 98%.

In the case of PVLDWFRELLNELLEALKQKLK [compound 35], the “ACTIVITY (%) LCAT” value in series [1] came out at 31%. In addition, in series [2], the “He (%) free” value came out at 49%, the “He (%) SUVs” value stood at 61% and the “He (%) mics” value is on record as 59%.

On to “Ac-PVLELFRELLEELKQKLK-NH2 [compound 194]”, for which the “ACTIVITY (%) LCAT” value in series [1] is 88%. Moreover, in series [2], the “He (%) TFE” value came to 93%, the “He (%) free” value is on record as 38% and the “He (%) mics” value is given as 93%.

With `CC(C)C[C@H](NC(=O)[C@H](C)NC(=O)[C@H](CCC(=O)O)NC(=O)[C@H](CC(C)C)NC(=O)C(C)(C)NC(=O)[C@H](CCC(=O)O)NC(=O)[C@H](CC(N)=O)NC(=O)[C@H](CC(C)C)NC(=O)[C@H](CCCCN)NC(=O)[C@H](CCC(=O)O)NC(=O)[C@H](CCCNC(=N)N)NC(=O)[C@H](Cc1ccccc1)NC(=O)[C@H](CCC(=O)O)NC(=O)[C@H](CC(=O)O)NC(=O)[C@H](CC(C)C)NC(=O)[C@@H](NC(=O)[C@@H]1CCCN1)C(C)C)C(=O)N[C@@H](CCCCN)C(=O)N[C@@H](CCC(N)=O)C(=O)N[C@@H](CCCCN)C(=O)N[C@@H](CC(C)C)C(=O)N[C@@H](CCCCN)C(=O)O` [compound 45, PVLDEFREKLNEXLEALKQKLK] (H-PVLDEFREKLNE[Aib]LEALKQKLK-OH), in series [1], the “ACTIVITY (%) LCAT” value was 24%. In series [2], the “He (%) TFE” value is 86%, the “He (%) free” value came out at 24%, the “He (%) SUVs” value was 25% and the “He (%) mics” value is listed as 84%.

For “Ac-PVLDLFKELLEELKQKLK-NH2 [compound 192]”, the “ACTIVITY (%) LCAT” value in series [1] is given as 100%. Also, in series [2], the “He (%) TFE” value amounted to 56% and the “He (%) free” value came to 36%.

As to “Ac-DWLKAFYDKVAEKLKEAF-NH2 [compound 240, reference compound]”, in series [1], the “ACTIVITY (%) LCAT” value is on record as 10%. Besides, in series [2], the “He (%) TFE” value came out at 57%, the “He (%) free” value is 16%, the “He (%) SUVs” value was 59% and the “He (%) mics” value came to 68%.

PLFRELLNELLEALKQKLK [compound 55]: in series [1], the “ACTIVITY (%) LCAT” value is given as 19%. In addition, in series [2], the “He (%) TFE” value is given as 75%, the “He (%) free” value was 38%, the “He (%) SUVs” value stood at 78% and the “He (%) mics” value is 72%.

Take PVLDLFRELLEELQKKLK [compound 220]: in series [1], the “ACTIVITY (%) LCAT” value was found to be 22%. In series [2], the “He (%) TFE” value is recorded as 64%, the “He (%) free” value was found to be 27%, the “He (%) SUVs” value came to 54% and the “He (%) mics” value is 64%.

In the case of “Ac-PLLDLFRELLEELKQKLK-NH2 [compound 197]”, the “ACTIVITY (%) LCAT” value in series [1] was found to be 81%. For the same compound, in series [2], the “He (%) TFE” value is on record as 69%, the “He (%) free” value is reported as 43% and the “He (%) mics” value worked out at 70%.

As for `CC(C)C[C@H](NC(=O)[C@H](C)NC(=O)[C@H](CCC(=O)O)NC(=O)[C@H](CC(C)C)NC(=O)C(C)(C)NC(=O)[C@H](CCC(=O)O)NC(=O)[C@H](CC(N)=O)NC(=O)[C@H](CC(C)C)NC(=O)[C@H](CC(C)C)NC(=O)[C@H](CCC(=O)O)NC(=O)[C@H](CCCNC(=N)N)NC(=O)[C@H](Cc1c[nH]c2ccccc12)NC(=O)[C@H](CC(C)C)NC(=O)[C@H](CC(=O)O)NC(=O)[C@H](CC(C)C)NC(=O)[C@@H](NC(=O)[C@@H]1CCCN1)C(C)C)C(=O)N[C@@H](CCCCN)C(=O)N[C@@H](CCC(N)=O)C(=O)N[C@@H](CCCCN)C(=O)N[C@@H](CC(C)C)C(=O)N[C@@H](CCCCN)C(=O)O` [compound 41, PVLDLWRELLNEXLEALKQKLK] (H-PVLDLWRELLNE[Aib]LEALKQKLK-OH), the “ACTIVITY (%) LCAT” value in series [1] came out at 25%. For the same compound, in series [2], the “He (%) TFE” value was 69%, the “He (%) free” value is 53%, the “He (%) SUVs” value is reported as 85% and the “He (%) mics” value is given as 73%.

`CC(C)C[C@H](NC(=O)[C@H](C)NC(=O)[C@H](CCC(=O)O)NC(=O)[C@H](CC(C)C)NC(=O)[C@H](CC(C)C)NC(=O)[C@H](CCC(=O)O)NC(=O)[C@H](CC(N)=O)NC(=O)[C@H](CC(C)C)NC(=O)[C@H](CC(C)C)NC(=O)[C@H](CCC(=O)O)NC(=O)[C@H](CCCNC(=N)N)NC(=O)[C@H](Cc1ccccc1)NC(=O)[C@H](Cc1cccc2ccccc12)NC(=O)[C@H](CC(=O)O)NC(=O)[C@H](CC(C)C)NC(=O)[C@@H](NC(=O)[C@@H]1CCCN1)C(C)C)C(=O)N[C@@H](CCCCN)C(=O)N[C@@H](CCC(N)=O)C(=O)N[C@@H](CCCCN)C(=O)N[C@@H](CC(C)C)C(=O)N[C@@H](CCCCN)C(=O)O` [compound 34, PVLDZFRELLNELLEALKQKLK] (H-PVLD[1Nal]FRELLNELLEALKQKLK-OH): the “ACTIVITY (%) LCAT” value in series [1] is listed as 32%. In series [2], the “He (%) TFE” value stood at 62%, the “He (%) free” value was found to be 58%, the “He (%) SUVs” value came out at 68% and the “He (%) mics” value amounted to 67%.

As to `CC(C)C[C@@H](NC(=O)[C@@H](C)NC(=O)[C@@H](CCC(=O)O)NC(=O)[C@@H](CC(C)C)NC(=O)C(C)(C)NC(=O)[C@@H](CCC(=O)O)NC(=O)[C@@H](CC(N)=O)NC(=O)[C@@H](CC(C)C)NC(=O)[C@@H](CCCCN)NC(=O)[C@@H](CCC(=O)O)NC(=O)[C@@H](CCCNC(=N)N)NC(=O)[C@@H](Cc1ccccc1)NC(=O)[C@@H](CCC(=O)O)NC(=O)[C@@H](CC(=O)O)NC(=O)[C@@H](CC(C)C)NC(=O)[C@H](NC(=O)[C@H]1CCCN1)C(C)C)C(=O)N[C@H](CCCCN)C(=O)N[C@H](CCC(N)=O)C(=O)N[C@H](CCCCN)C(=O)N[C@H](CC(C)C)C(=O)N[C@H](CCCCN)C(=O)O` [compound 44, pvldefreklneXlealkqklk] (H-[dP][dV][dL][dD][dE][dF][dR][dE][dK][dL][dN][dE][Aib][dL][dE][dA][dL][dK][dQ][dK][dL][dK]-OH), the “ACTIVITY (%) LCAT” value in series [1] is given as 25%. Besides, in series [2], the “He (%) free” value stood at 20% and the “He (%) mics” value came to 86%.

For the compound `CC(C)C[C@H](NC(=O)[C@H](C)NC(=O)[C@H](CCC(=O)O)NC(=O)[C@H](Cc1c[nH]c2ccccc12)NC(=O)C(C)(C)NC(=O)[C@H](CCC(=O)O)NC(=O)[C@H](CC(N)=O)NC(=O)[C@H](CC(C)C)NC(=O)[C@H](CCCCN)NC(=O)[C@H](CCC(=O)O)NC(=O)[C@H](CCCNC(=N)N)NC(=O)[C@H](Cc1ccccc1)NC(=O)[C@H](CCC(=O)O)NC(=O)[C@H](CC(=O)O)NC(=O)[C@H](CC(C)C)NC(=O)[C@@H](NC(=O)[C@@H]1CCCN1)C(C)C)C(=O)N[C@@H](CCCCN)C(=O)N[C@@H](CCC(N)=O)C(=O)N[C@@H](CCCCN)C(=O)N[C@@H](CC(C)C)C(=O)N[C@@H](CCCCN)C(=O)O` [compound 42, PVLDEFREKLNEXWEALKQKLK] (H-PVLDEFREKLNE[Aib]WEALKQKLK-OH), the “ACTIVITY (%) LCAT” value in series [1] came to 25%. Besides, in series [2], the “He (%) TFE” value is 76%, the “He (%) free” value was found to be 15%, the “He (%) SUVs” value came out at 27% and the “He (%) mics” value turned out to be 74%.

Consider PVLELFENLLERLLDWLQKKLK [compound 160], for which the “ACTIVITY (%) LCAT” value in series [1] is given as 28%. In series [2], the “He (%) TFE” value amounted to 61%, the “He (%) free” value worked out at 65%, the “He (%) SUVs” value worked out at 75% and the “He (%) mics” value is listed as 73%.
